Values of other authors, collected in patent US20160136093A9, “ENGINEERED AEROSOL PARTICLES, AND ASSOCIATED METHODS” (priority 2009, published 2016).

Tested on: non-replicating TB
Conditions: after one month, in vitro

Capreomycin
decrease in colony forming units (CFU): one to two
